# Molecular target: MCH receptor (Homo sapiens, UniProt Q99705)
# Experiment: High throughput functional screening FLIPR/FDSS6000: inhibition of MCH-evoked intracellular Ca2+ changes
# Assay type: cell-based
# Settings: class by percent of control at 10^-7 M or IC50
# In short: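 Fluo4 fluorescence (Ex 488 nm, Em 530 nm) tracked MCH-evoked [Ca2+]i transients over 290 s by FLIPR or FDSS. Cells carried a constitutively active, non-endogenous receptor version. Compounds were added 3 min before a 50 nM MCH challenge.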
row,Compound,class
1,CN(C)c1nc(N[C@H]2CC[C@@H](CNC(=S)NCc3ccccc3Cl)CC2)nc2ccccc12 [compound 678],3 (Class 3: The value of percent of control at 10^−7 M was more than 60% or the value of IC50 was more than 200 nM.)
2,CN(C)c1nc(N[C@H]2CC[C@@H](CNC(=S)NCc3ccc(F)cc3)CC2)nc2ccccc12 [compound 698],3 (Class 3: The value of percent of control at 10^−7 M was more than 60% or the value of IC50 was more than 200 nM.)
3,CN(C)c1nc(N[C@H]2CC[C@@H](CNC(=S)Nc3ccc(Sc4ccc([N+](=O)[O-])cc4)cc3)CC2)nc2ccccc12 [compound 741],3 (Class 3: The value of percent of control at 10^−7 M was more than 60% or the value of IC50 was more than 200 nM.)
4,Cc1ccc(NC(=S)NC[C@H]2CC[C@@H](Nc3nc(N(C)C)c4ccccc4n3)CC2)cc1 [compound 621],3 (Class 3: The value of percent of control at 10^−7 M was more than 60% or the value of IC50 was more than 200 nM.)
5,"Cc1ccccc1CNC(=S)N[C@H]1CC[C@@H](Nc2nc(N(C)C)c3ccccc3n2)CC1 [compound 303, N-(cis-4-{[4-(dimethylamino)quinazolin-2-yl]amino}cyclohexyl)-N′-(2-methylbenzyl)thiourea]",2 (Class 2: The value of percent of control at 10^−7 M was from 40% to 60% or the value of IC50 was from 50 nM to 200 nM.)
6,CN(C)c1nc(N[C@H]2CC[C@@H](NC(=S)Nc3cccc(F)c3)CC2)nc2ccccc12 [compound 226],3 (Class 3: The value of percent of control at 10^−7 M was more than 60% or the value of IC50 was more than 200 nM.)
7,CCCCOC(=O)c1ccccc1NC(=O)N[C@H]1CC[C@@H](Nc2nc(N(C)C)c3ccccc3n2)CC1 [compound 330],3 (Class 3: The value of percent of control at 10^−7 M was more than 60% or the value of IC50 was more than 200 nM.)
8,Cc1cc(C)cc(NC(=O)NC[C@H]2CC[C@@H](Nc3nc(N(C)C)c4ccccc4n3)CC2)c1 [compound 526],3 (Class 3: The value of percent of control at 10^−7 M was more than 60% or the value of IC50 was more than 200 nM.)
9,CN(C)c1nc(N[C@H]2CC[C@@H](CNC(=S)NC34CC5CC(CC(C5)C3)C4)CC2)nc2ccccc12 (relative stereo) [compound 624],3 (Class 3: The value of percent of control at 10^−7 M was more than 60% or the value of IC50 was more than 200 nM.)
10,CN(C)c1nc(N[C@H]2CC[C@@H](CNC(=S)Nc3cc(Cl)ccc3Cl)CC2)nc2ccccc12 [compound 592],3 (Class 3: The value of percent of control at 10^−7 M was more than 60% or the value of IC50 was more than 200 nM.)
11,Cc1ccccc1NC(=S)NC[C@H]1CC[C@@H](Nc2nc(N(C)C)c3ccccc3n2)CC1 [compound 622],3 (Class 3: The value of percent of control at 10^−7 M was more than 60% or the value of IC50 was more than 200 nM.)
12,CN(C)c1nc(N[C@H]2CC[C@@H](NC(=S)NC(=O)/C=C/c3ccccc3)CC2)nc2ccccc12 [compound 326],3 (Class 3: The value of percent of control at 10^−7 M was more than 60% or the value of IC50 was more than 200 nM.)
13,COC(=O)c1sccc1NC(=S)N[C@H]1CC[C@@H](Nc2nc(N(C)C)c3ccccc3n2)CC1 [compound 382],1 (Class 1: The value of percent of control at 10^−7 M was less than 40% or the value of IC50 was less than 50 nM.)
14,Cc1cc(C)c(NC(=S)NC[C@H]2CC[C@@H](Nc3nc(N(C)C)c4ccccc4n3)CC2)cc1C [compound 717],3 (Class 3: The value of percent of control at 10^−7 M was more than 60% or the value of IC50 was more than 200 nM.)
15,"CN(C)c1nc(N[C@H]2CC[C@@H](CNC(=O)Nc3ccc(Br)cc3C(F)(F)F)CC2)nc2ccccc12 [compound 541, N-[4-bromo-2-(trifluoromethyl)phenyl]-N′-[(cis-4-{[4-(dimethylamino)quinazolin-2-yl]amino}cyclohexyl)methyl]urea]",2 (Class 2: The value of percent of control at 10^−7 M was from 40% to 60% or the value of IC50 was from 50 nM to 200 nM.)
16,"CC(C)c1ccccc1NC(=S)NC[C@H]1CC[C@@H](Nc2nc(N(C)C)c3ccccc3n2)CC1 [compound 680, N-[(cis-4-{[4-(dimethylamino)quinazolin-2-yl]amino}cyclohexyl)methyl]-N′-(2-isopropylphenyl)thiourea]",2 (Class 2: The value of percent of control at 10^−7 M was from 40% to 60% or the value of IC50 was from 50 nM to 200 nM.)
17,CN(C)c1nc(N[C@H]2CC[C@@H](CNC(=S)Nc3cc(Cl)c(Cl)cc3Cl)CC2)nc2ccccc12 [compound 668],3 (Class 3: The value of percent of control at 10^−7 M was more than 60% or the value of IC50 was more than 200 nM.)
18,CN(C)c1nc(N[C@H]2CC[C@@H](NC(=S)Nc3ccc(S(N)(=O)=O)cc3)CC2)nc2ccccc12 [compound 319],3 (Class 3: The value of percent of control at 10^−7 M was more than 60% or the value of IC50 was more than 200 nM.)
19,"CN(C)c1nc(N[C@H]2CC[C@@H](NC(=S)NCc3cccc(Cl)c3)CC2)nc2ccccc12 [compound 305, N-(3-chlorobenzyl)-N′-(cis-4-{[4-(dimethylamino)quinazolin-2-yl]amino}cyclohexyl)thiourea]",1 (Class 1: The value of percent of control at 10^−7 M was less than 40% or the value of IC50 was less than 50 nM.)
20,CN(C)c1nc(N[C@H]2CC[C@@H](NC(=S)NCc3ccccc3F)CC2)nc2ccccc12 [compound 300],2 (Class 2: The value of percent of control at 10^−7 M was from 40% to 60% or the value of IC50 was from 50 nM to 200 nM.)
21,CN(C)c1nc(N[C@H]2CC[C@@H](CNC(=S)NCCC3=CCCCC3)CC2)nc2ccccc12 [compound 779],3 (Class 3: The value of percent of control at 10^−7 M was more than 60% or the value of IC50 was more than 200 nM.)
22,COc1ccc(NC(=S)NC[C@H]2CC[C@@H](Nc3nc(N(C)C)c4ccccc4n3)CC2)c(C)c1 [compound 743],2 (Class 2: The value of percent of control at 10^−7 M was from 40% to 60% or the value of IC50 was from 50 nM to 200 nM.)
23,COc1ccc([N+](=O)[O-])cc1NC(=S)NC[C@H]1CC[C@@H](Nc2nc(N(C)C)c3ccccc3n2)CC1 [compound 725],2 (Class 2: The value of percent of control at 10^−7 M was from 40% to 60% or the value of IC50 was from 50 nM to 200 nM.)
24,"Cc1cc(Br)cc(C)c1NC(=S)NC[C@H]1CC[C@@H](Nc2nc(N(C)C)c3ccccc3n2)CC1 [compound 691, N-(4-bromo-2,6-dimethylphenyl)-N′-[(cis-4-{[4-(dimethylamino)quinazolin-2-yl]amino}cyclohexyl)methyl]thiourea]",1 (Class 1: The value of percent of control at 10^−7 M was less than 40% or the value of IC50 was less than 50 nM.)
25,COC(=O)[C@H](Cc1ccccc1)NC(=O)NC[C@H]1CC[C@@H](Nc2nc(N(C)C)c3ccccc3n2)CC1 (relative stereo) [compound 462],3 (Class 3: The value of percent of control at 10^−7 M was more than 60% or the value of IC50 was more than 200 nM.)

# Same assay, conditions: class by percent of control at 10^-7 M or by IC50; read-out: class
row,IC50 [nM],Compound
1,< 50,"CN(C)c1nc(N[C@H]2CC[C@@H](NC(=O)Nc3c(Cl)cc(Cl)cc3Cl)CC2)nc2ccccc12 [compound 63, N-(cis-4-{[4-(dimethylamino)quinazolin-2-yl]amino}cyclohexyl)-N′-(2,4,6-trichlorophenyl)urea]"
2,> 200,CN(C)c1nc(N[C@H]2CC[C@@H](NC(=O)Nc3ccc(Cc4ccccc4)cc3)CC2)nc2ccccc12 [compound 140]
3,> 200,CN(C)c1nc(N[C@H]2CC[C@@H](NC(=O)Nc3ccccc3OC(F)F)CC2)nc2ccccc12 [compound 69]
4,50 to 200,"Cc1ccc(CNC(=O)N[C@H]2CC[C@@H](Nc3nc(N(C)C)c4ccccc4n3)CC2)cc1 [compound 830, N-(cis-4-{[4-(dimethylamino)quinazolin-2-yl]amino}cyclohexyl)-N′-(4-methylbenzyl)urea]"
5,50 to 200,"CCOC(=O)c1ccc(NC(=O)N[C@H]2CC[C@@H](Nc3nc(N(C)C)c4ccccc4n3)CC2)cc1 [compound 30, ethyl 4-({[(cis-4-{[4-(dimethylamino)quinazolin-2-yl]amino}cyclohexyl)amino]carbonyl}amino)benzoate]"
6,50 to 200,"Cc1ccc(NC(=S)N[C@H]2CC[C@@H](Nc3nc(N(C)C)c4ccccc4n3)CC2)cc1 [compound 197, N-(cis-4-{[4-(dimethylamino)quinazolin-2-yl]amino}cyclohexyl)-N′-(4-methylphenyl)thiourea]"

row,Compound,IC50 [nM]
1,CN(C)c1nc(N[C@H]2CC[C@@H](NC(=O)Oc3ccc4ccccc4c3)CC2)nc2ccccc12 [compound 856],> 200

# Same assay, conditions: class by percent of control at 10^−7 M or by IC50; read-out: class
row,IC50 [nM],Compound
1,< 50,"CN(C)c1nc(N[C@H]2CC[C@@H](C(=O)NCc3ccc(Cl)c(Cl)c3)CC2)nc2ccccc12 [Example 1156, cis-N-(3,4-dichlorobenzyl)-4-{[4-(dimethylamino)quinazolin-2-yl]amino}cyclohexanecarboxamide]"
2,50 to 200,"COc1ccc(OC)c(NC(=O)NC[C@H]2CC[C@@H](Nc3nc(N(C)C)c4ccccc4n3)CC2)c1 [Example 1020, N-(2,5-dimethoxyphenyl)-N′-[(cis-4-{[4-(dimethylamino)quinazolin-2-yl]amino}cyclohexyl)methyl]urea]"
3,> 200,"CN(C)c1nc(N[C@H]2CC[C@@H](NC(=O)c3ccc(Oc4ccc(F)cc4)nc3)CC2)nc2ccccc12 [Example 1059, N-(cis-4-{[4-(dimethylamino)quinazolin-2-yl]amino}cyclohexyl)-6-(4-fluorophenoxy)nicotinamide]"
4,< 50,"CN(C)c1nc(N[C@H]2CC[C@@H](C(=O)NCc3cc(F)c(F)c(F)c3)CC2)nc2ccccc12 [Example 1171, cis-4-{[4-(dimethylamino)quinazolin-2-yl]amino}-N-(3,4,5-trifluorobenzyl)cyclohexanecarboxamide]"
5,50 to 200,"Cc1ccc(CNC(=O)[C@H]2CC[C@@H](Nc3nc(N(C)C)c4ccccc4n3)CC2)cc1F [Example 1143, cis-4-{[4-(dimethylamino)quinazolin-2-yl]amino}-N-(3-fluoro-4-methylbenzyl)cyclohexanecarboxamide]"

# — patent US20070010671A1, “Novel quinazoline derivatives and methods of treatment related to the use thereof” (priority 2003, published 2007)
